Results taken from ChEMBL document CHEMBL2074141, “Comparison of lactate transport in astroglial cells and monocarboxylate transporter 1 (MCT 1) expressing Xenopus laevis oocytes. Expression of two different monocarboxylate transporters in astroglial cells and neurons” (J Biol Chem, 1997).

Legend:
Assay type in all cases: functional, cell-based
Design in all cases: scale not given: the % may be the effect or the level left
Settings in all cases: Oocyte
[1] = target: T1, Monocarboxylate transporter 1 (Rattus norvegicus) (UniProt P53987); test: TP_TRANSPORTER: inhibition of lactate uptake (Lactate:0.1mM, 4-CIN:5mM, preincubation with aminoxyacetate) in Xenopus laevis oocytes
T1 sequence (whole entry): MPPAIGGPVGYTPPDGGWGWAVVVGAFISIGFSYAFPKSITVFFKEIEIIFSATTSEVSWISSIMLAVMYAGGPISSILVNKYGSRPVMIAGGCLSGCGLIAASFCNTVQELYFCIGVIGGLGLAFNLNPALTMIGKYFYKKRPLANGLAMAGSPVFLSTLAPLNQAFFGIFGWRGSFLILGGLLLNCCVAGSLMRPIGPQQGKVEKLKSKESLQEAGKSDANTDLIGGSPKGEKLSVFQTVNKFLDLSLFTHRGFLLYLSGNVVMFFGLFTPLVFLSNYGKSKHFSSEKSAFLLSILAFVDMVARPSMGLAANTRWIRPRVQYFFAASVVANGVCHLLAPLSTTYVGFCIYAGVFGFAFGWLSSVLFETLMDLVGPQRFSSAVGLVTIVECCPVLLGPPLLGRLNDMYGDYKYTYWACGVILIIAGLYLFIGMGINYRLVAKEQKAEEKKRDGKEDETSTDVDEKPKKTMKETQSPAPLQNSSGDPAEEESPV

[2] = target: T1, Monocarboxylate transporter 1 (Rattus norvegicus); test: TP_TRANSPORTER: inhibition of lactate uptake (Lactate:0.1mM, Pyruvate:1mM, preincubation with aminoxyacetate) in Xenopus laevis oocytes
[3] = target: T1, Monocarboxylate transporter 1 (Rattus norvegicus); test: TP_TRANSPORTER: inhibition of lactate uptake (Lactate:0.1mM, alpha-Ketoisocaproate:5mM, preincubation with aminoxyacetate) in Xenopus laevis oocytes
[4] = target: T1, Monocarboxylate transporter 1 (Rattus norvegicus); test: TP_TRANSPORTER: inhibition of lactate uptake (Lactate:0.1mM, Acetoacetate:50mM, preincubation with aminoxyacetate) in Xenopus laevis oocytes
[5] = target: T1, Monocarboxylate transporter 1 (Rattus norvegicus); test: TP_TRANSPORTER: inhibition of lactate uptake (Lactate:0.1mM, D,L-3-Hydroxybutyrate:50mM, preincubation with aminoxyacetate) in Xenopus laevis oocytes
[6] = target: Monocarboxylate transporter 1 (Rattus norvegicus) (UniProt P53987); test: TP_TRANSPORTER: inhibition of lactate uptake (Lactate:0.1mM, pCMBS:1mM, preincubation with aminoxyacetate) in Xenopus laevis oocytes

Compound `N#C/C(=C\c1ccc(O)cc1)C(=O)O` has an Activity [1] of 9%.
With `CC(=O)C(=O)O` the Activity [2] was 23%.
Work on `CC(C)CC(=O)C(=O)O` yielded an Activity [3] of 13%.
`CC(=O)CC(=O)O` gave an Activity [4] of 13%.
Work on `CC(O)CC(=O)O` (racemic) yielded an Activity [5] of 7%.
Compound p-Chloromercuribenzenesulfonate has an Activity [6] of 18%.
